According to the kinase profiling compilation of Christmann-Franck et al. (2016):

Legend:
Test in all cases: KINOMEscan competition binding
Conditions in all cases: compound 10.0 µM
RAF1 (human) = RAF1 (human) (UniProt P04049)
MAP4K4 (human) = MAP4K4 (human) (UniProt O95819)
MARK3 (human) = MARK3 (human) (UniProt P27448)
GSK3B (human) = GSK3B (human) (UniProt P49841)
CAMKK2 (human) = CAMKK2 (human) (UniProt Q96RR4)
BRSK2 (human) = BRSK2 (human) (UniProt Q8IWQ3)
PKN2 (human) = PKN2 (human) (UniProt Q16513)
CSK (human) = CSK (human) (UniProt P41240)
ERBB4 (human) = ERBB4 (human) (UniProt Q15303)
[1] = molecular target: JAK3 JH1 catalytic (human) (UniProt P52333)
DCLK2 (human) = DCLK2 (human) (UniProt Q8N568)
LIMK1 (human) = LIMK1 (human) (UniProt P53667)
PRKCD (human) = PRKCD (human) (UniProt Q05655)
CAMKK1 (human) = CAMKK1 (human) (UniProt Q8N5S9)
[2] = molecular target: JAK1 JH1 catalytic (human) (UniProt P23458)
TYRO3 (human) = TYRO3 (human) (UniProt Q06418)
MARK2 (human) = MARK2 (human) (UniProt Q7KZI7)
MERTK (human) = MERTK (human) (UniProt Q12866)
BMPR2 (human) = BMPR2 (human) (UniProt Q13873)
IKBKB (human) = IKBKB (human) (UniProt O14920)
MAPKAPK5 (human) = MAPKAPK5 (human) (UniProt Q8IW41)
IGF1R (human) = IGF1R (human) (UniProt P08069)
PAK2 (human) = PAK2 (human) (UniProt Q13177)
DCLK3 (human) = DCLK3 (human) (UniProt Q9C098)
BLK (human) = BLK (human) (UniProt P51451)
NUAK1 (human) = NUAK1 (human) (UniProt O60285)
AURKC (human) = AURKC (human) (UniProt Q9UQB9)
RPS6KA2 KD1 (human) = RPS6KA2 KD1 (human) (UniProt Q15349)
STK24 (human) = STK24 (human) (UniProt Q9Y6E0)
[3] = tested on: FLT3 (human), P36888 [ITD]
ROCK2 (human) = ROCK2 (human) (UniProt O75116)
CSNK2A1 (human) = CSNK2A1 (human) (UniProt P68400)
FGFR3 (human) = FGFR3 (human) (UniProt P22607)
NTRK3 (human) = NTRK3 (human) (UniProt Q16288)
CDC42BPB (human) = CDC42BPB (human) (UniProt Q9Y5S2)
AKT3 (human) = AKT3 (human) (UniProt Q9Y243)
PDPK1 (human) = PDPK1 (human) (UniProt O15530)
PRKG2 (human) = PRKG2 (human) (UniProt Q13237)
RPS6KA6 KD1 (human) = RPS6KA6 KD1 (human) (UniProt Q9UK32)
STK33 (human) = STK33 (human) (UniProt Q9BYT3)

MAP4K4 (human), sequence (O95819 whole entry, looked up): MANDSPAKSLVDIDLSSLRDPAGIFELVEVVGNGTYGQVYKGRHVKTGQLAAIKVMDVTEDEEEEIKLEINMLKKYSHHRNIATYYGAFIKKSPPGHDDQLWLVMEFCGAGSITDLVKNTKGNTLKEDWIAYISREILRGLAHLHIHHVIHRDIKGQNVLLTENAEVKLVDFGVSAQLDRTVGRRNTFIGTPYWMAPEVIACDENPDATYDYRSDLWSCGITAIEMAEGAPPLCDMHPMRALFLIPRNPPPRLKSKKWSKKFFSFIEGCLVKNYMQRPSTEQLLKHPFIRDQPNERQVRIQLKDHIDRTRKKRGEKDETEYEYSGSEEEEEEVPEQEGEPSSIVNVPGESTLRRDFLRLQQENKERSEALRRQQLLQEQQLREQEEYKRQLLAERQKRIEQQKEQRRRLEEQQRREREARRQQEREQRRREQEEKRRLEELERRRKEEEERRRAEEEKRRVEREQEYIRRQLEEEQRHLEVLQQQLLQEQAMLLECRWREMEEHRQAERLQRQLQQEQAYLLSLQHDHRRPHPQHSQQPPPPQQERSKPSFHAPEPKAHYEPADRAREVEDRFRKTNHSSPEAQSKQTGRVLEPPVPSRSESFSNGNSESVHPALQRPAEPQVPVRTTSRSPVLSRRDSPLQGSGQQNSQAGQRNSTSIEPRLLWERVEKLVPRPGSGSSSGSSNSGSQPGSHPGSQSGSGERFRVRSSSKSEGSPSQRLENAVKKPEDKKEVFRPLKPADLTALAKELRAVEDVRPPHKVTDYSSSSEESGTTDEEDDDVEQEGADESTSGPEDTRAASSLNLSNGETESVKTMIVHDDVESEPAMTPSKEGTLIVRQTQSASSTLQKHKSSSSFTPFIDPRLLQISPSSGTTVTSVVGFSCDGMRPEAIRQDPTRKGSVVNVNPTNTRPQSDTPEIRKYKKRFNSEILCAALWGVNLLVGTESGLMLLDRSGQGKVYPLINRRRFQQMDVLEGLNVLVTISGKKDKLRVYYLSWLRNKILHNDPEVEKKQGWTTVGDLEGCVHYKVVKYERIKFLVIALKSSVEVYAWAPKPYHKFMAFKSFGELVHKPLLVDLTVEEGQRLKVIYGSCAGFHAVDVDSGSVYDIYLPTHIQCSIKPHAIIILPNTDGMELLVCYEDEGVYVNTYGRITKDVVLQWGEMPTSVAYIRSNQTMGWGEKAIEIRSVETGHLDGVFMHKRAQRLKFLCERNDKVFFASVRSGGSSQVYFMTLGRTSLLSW
MARK3 (human), sequence (P27448 whole entry, looked up): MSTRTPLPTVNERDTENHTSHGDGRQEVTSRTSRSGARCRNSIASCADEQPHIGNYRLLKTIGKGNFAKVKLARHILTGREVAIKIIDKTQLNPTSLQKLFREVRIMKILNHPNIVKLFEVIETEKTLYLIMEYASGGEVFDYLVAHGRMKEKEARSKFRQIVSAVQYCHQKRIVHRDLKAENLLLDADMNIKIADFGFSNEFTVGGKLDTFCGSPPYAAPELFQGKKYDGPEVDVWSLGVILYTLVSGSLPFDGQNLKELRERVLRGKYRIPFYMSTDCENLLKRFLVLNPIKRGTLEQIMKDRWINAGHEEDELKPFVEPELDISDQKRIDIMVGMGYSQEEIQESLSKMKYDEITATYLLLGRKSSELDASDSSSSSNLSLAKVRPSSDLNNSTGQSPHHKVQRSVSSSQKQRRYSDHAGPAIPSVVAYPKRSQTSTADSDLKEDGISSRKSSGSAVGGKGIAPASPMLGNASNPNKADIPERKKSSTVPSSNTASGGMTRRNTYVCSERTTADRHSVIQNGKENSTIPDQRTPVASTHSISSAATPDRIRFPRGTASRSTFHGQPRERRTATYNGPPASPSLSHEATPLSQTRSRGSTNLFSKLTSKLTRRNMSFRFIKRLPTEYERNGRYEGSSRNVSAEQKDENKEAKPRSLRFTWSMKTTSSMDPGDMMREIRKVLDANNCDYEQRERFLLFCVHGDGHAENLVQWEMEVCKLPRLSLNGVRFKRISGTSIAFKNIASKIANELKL
CSNK2A1 (human), sequence (P68400 whole entry, looked up): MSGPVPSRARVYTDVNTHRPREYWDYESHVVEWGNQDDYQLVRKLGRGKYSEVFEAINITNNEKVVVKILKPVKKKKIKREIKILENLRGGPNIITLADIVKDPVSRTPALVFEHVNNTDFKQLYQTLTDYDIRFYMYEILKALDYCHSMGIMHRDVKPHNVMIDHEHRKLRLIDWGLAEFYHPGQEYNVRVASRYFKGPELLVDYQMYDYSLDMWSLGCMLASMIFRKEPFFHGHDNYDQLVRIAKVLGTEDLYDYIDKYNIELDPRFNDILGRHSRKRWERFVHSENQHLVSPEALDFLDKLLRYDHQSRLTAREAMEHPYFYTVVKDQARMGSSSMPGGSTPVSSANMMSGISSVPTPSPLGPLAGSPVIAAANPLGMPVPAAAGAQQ
MAPKAPK5 (human), sequence (Q8IW41 whole entry, looked up): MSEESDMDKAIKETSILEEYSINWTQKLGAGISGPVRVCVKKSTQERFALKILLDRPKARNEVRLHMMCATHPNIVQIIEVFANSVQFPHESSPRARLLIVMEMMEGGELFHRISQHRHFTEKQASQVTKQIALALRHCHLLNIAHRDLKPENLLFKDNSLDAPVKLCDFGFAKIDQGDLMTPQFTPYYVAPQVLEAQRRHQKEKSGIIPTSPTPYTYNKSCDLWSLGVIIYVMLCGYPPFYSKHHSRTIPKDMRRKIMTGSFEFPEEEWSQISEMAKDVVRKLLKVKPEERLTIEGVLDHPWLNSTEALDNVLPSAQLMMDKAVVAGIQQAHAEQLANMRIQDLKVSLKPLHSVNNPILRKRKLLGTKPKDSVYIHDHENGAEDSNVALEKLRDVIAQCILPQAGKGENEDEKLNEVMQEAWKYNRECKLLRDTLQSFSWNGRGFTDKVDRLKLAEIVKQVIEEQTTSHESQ
CSK (human), sequence (P41240 whole entry, looked up): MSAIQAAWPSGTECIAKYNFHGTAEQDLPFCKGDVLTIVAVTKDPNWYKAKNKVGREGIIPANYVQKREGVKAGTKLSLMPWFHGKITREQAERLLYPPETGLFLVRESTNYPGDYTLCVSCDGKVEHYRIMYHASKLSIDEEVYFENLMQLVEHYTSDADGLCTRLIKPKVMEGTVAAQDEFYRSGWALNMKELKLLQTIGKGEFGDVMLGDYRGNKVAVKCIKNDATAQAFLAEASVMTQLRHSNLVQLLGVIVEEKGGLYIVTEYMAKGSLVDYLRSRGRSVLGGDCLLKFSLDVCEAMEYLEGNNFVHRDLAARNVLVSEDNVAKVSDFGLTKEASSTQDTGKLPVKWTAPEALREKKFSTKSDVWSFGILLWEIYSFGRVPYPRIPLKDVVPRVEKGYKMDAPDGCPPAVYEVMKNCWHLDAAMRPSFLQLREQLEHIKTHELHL
DCLK2 (human), sequence (Q8N568 whole entry, looked up): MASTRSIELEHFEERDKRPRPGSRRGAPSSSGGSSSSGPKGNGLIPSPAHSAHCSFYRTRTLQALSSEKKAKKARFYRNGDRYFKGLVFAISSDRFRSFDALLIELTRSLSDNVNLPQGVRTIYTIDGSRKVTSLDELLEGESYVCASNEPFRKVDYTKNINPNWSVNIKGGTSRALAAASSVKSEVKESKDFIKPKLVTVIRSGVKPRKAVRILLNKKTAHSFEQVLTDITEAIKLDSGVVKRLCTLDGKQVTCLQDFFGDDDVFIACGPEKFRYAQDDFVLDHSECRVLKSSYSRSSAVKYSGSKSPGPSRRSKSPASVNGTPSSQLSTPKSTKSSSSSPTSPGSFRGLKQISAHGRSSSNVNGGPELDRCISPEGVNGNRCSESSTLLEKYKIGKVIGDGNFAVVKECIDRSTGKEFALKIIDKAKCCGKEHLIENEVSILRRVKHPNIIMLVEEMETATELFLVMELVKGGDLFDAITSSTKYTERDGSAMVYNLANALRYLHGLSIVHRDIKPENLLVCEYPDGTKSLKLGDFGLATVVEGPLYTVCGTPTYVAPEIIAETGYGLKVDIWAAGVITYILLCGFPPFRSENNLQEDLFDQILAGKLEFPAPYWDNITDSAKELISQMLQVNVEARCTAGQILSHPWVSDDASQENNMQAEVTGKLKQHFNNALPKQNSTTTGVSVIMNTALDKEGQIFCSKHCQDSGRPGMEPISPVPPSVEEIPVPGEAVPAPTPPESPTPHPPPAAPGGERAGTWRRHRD
BLK (human), sequence (P51451 whole entry, looked up): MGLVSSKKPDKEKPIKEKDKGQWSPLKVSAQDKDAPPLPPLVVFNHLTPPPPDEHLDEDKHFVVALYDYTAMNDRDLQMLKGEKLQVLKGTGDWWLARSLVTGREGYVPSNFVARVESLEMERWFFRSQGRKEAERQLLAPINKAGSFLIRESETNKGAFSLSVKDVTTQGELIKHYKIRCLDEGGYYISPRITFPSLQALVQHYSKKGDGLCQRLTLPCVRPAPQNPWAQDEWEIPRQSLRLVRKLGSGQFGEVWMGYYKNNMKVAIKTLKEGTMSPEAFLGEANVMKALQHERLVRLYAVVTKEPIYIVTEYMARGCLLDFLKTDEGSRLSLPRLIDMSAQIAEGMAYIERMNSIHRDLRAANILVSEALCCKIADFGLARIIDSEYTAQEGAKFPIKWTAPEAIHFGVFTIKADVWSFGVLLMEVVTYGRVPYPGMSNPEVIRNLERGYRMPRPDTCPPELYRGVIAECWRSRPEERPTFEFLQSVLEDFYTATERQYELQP
GSK3B (human), sequence (P49841 whole entry, looked up): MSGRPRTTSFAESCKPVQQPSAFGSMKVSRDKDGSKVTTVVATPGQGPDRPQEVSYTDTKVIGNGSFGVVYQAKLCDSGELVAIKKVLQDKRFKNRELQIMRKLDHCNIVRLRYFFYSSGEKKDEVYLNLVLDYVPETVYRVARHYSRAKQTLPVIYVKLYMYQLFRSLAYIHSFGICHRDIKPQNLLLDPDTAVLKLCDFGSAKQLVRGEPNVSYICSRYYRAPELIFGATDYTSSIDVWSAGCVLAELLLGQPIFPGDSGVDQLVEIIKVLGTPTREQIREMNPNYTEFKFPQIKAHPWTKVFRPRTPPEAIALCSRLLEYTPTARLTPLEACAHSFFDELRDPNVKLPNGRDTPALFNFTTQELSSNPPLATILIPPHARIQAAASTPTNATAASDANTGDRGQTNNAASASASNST

Row | Structure (SMILES) | kinase still bound, per cent of control (RAF1 (human)) | kinase still bound, per cent of control (MAP4K4 (human)) | kinase still bound, per cent of control (MARK3 (human)) | kinase still bound, per cent of control (GSK3B (human)) | kinase still bound, per cent of control (CAMKK2 (human)) | kinase still bound, per cent of control (BRSK2 (human)) | kinase still bound, per cent of control (PKN2 (human)) | kinase still bound, per cent of control (CSK (human)) | kinase still bound, per cent of control [1] | kinase still bound, per cent of control (DCLK2 (human)) | kinase still bound, per cent of control (LIMK1 (human)) | kinase still bound, per cent of control (PRKCD (human)) | kinase still bound, per cent of control (CAMKK1 (human)) | kinase still bound, per cent of control [2] | kinase still bound, per cent of control (TYRO3 (human)) | kinase still bound, per cent of control (MARK2 (human)) | kinase still bound, per cent of control (MERTK (human)) | kinase still bound, per cent of control (BMPR2 (human)) | kinase still bound, per cent of control (IKBKB (human)) | kinase still bound, per cent of control (MAPKAPK5 (human)) | other results
1 | OCCCNc1cc(-c2ccnc(Nc3cccc(Cl)c3)n2)ccn1 | 100% | 100% | 100% | 100% | 100% | 100% | 100% | 100% | 100% | 100% | 100% | 100% | 100% | 100% | 100% | 100% | 100% | 100% | 100% | 100% | kinase still bound, per cent of control (ERBB4 (human)): 100%; kinase still bound, per cent of control (IGF1R (human)): 100%; kinase still bound, per cent of control (PAK2 (human)): 100%; kinase still bound, per cent of control (DCLK3 (human)): 100%; kinase still bound, per cent of control (BLK (human)): 100%; kinase still bound, per cent of control (NUAK1 (human)): 100%; kinase still bound, per cent of control (AURKC (human)): 100%; kinase still bound, per cent of control (RPS6KA2 KD1 (human)): 100%; kinase still bound, per cent of control (STK24 (human)): 100%; kinase still bound, per cent of control [3]: 100%; kinase still bound, per cent of control (ROCK2 (human)): 100%; kinase still bound, per cent of control (CSNK2A1 (human)): 100%; kinase still bound, per cent of control (FGFR3 (human)): 100%; kinase still bound, per cent of control (NTRK3 (human)): 100%; kinase still bound, per cent of control (CDC42BPB (human)): 100%; kinase still bound, per cent of control (AKT3 (human)): 100%; kinase still bound, per cent of control (PDPK1 (human)): 100%; kinase still bound, per cent of control (PRKG2 (human)): 100%; kinase still bound, per cent of control (RPS6KA6 KD1 (human)): 100%
2 | CCCS(=O)(=O)Nc1ccc(F)c(C(=O)c2c[nH]c3ncc(-c4ccc(Cl)cc4)cc23)c1F | 0.95% | 48% | 61% | 100% | 100% | 100% | 92% | 7.4% | 83% | 100% | 27% | 100% | 86% | 28% | 100% | 69% | 60% | 57% | 100% | 100% | kinase still bound, per cent of control (STK33 (human)): 94%; kinase still bound, per cent of control (IGF1R (human)): 93%; kinase still bound, per cent of control (PAK2 (human)): 80%; kinase still bound, per cent of control (DCLK3 (human)): 47%; kinase still bound, per cent of control (BLK (human)): 2.2%; kinase still bound, per cent of control (NUAK1 (human)): 100%; kinase still bound, per cent of control (RPS6KA2 KD1 (human)): 39%; kinase still bound, per cent of control (STK24 (human)): 77%; kinase still bound, per cent of control (ROCK2 (human)): 77%; kinase still bound, per cent of control (CSNK2A1 (human)): 100%; kinase still bound, per cent of control (FGFR3 (human)): 93%; kinase still bound, per cent of control (NTRK3 (human)): 65%; kinase still bound, per cent of control (CDC42BPB (human)): 79%; kinase still bound, per cent of control (AKT3 (human)): 100%; kinase still bound, per cent of control (PDPK1 (human)): 70%; kinase still bound, per cent of control (RPS6KA6 KD1 (human)): 82%
